# Assay results from USRE39682E1, “Farnesyl derivatives and pharmaceutical compositions containing them” (Ramot at Tel Aviv University Ltd., priority 1993, dated 2007).
# Key:
# [1] = target: T1, prenylated protein methyltransferase (PPMTase) (Rattus norvegicus, UniProt Q9WVM4); assay: Methylation of AFC by PPMTase in rat cerebellar synaptosomal membranes; type: biochemical; conditions: for Ki: Table II, given as range, read-out: Ki
# T1 construct: from tissue; host or cells: rat cerebellum, synaptosomal membranes
# T1 sequence (Q9WVM4 whole entry): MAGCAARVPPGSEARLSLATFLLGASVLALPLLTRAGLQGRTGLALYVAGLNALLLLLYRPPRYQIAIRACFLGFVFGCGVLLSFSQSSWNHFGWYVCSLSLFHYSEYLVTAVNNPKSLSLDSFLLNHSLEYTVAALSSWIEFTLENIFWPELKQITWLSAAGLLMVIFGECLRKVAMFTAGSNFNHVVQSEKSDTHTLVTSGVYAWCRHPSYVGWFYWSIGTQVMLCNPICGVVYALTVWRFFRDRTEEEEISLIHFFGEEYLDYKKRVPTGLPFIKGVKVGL
# From the text: As a substrate for methylation served AFC and as the donor of methyl served [methyl-H^3] labelled AdoMet. As a source of the enzyme prenylated protein methyltransferase (PPTMase) served rat cerebellar membranes which are known to be membranes enriched with this enzyme (Ben-Baruch, Biochem. Biophys. Res. Commun., 195, 282-288. (1993)).
# Charles River adult male rats were used for preparation of cerebellar synaptosomal membranes. Cerebella were removed after decapitation and homogenized in 0.32M sucrose containing 50 mM Tris-HCl pH 7.4, 3 mM EDTA, 1 mM EGTA, 5 unit/ml aprotinin and 5 μg/ml pepstatin (buffer A) to yield 10% (w/v) homogenates. Nuclear fractions were obtained by 10 min. 600×g centrifugation and synaptosomal fractions were obtained by 20 mins. 14,500×g centrifugation. Membranes of the various cell types used were prepared in the above buffer A by a 60 min. spin at 100,000×g.
# Pellets were resuspended in the homogenization buffer and stored at −70° C. Methylation assays were performed at 37° C. in 50 mM Tris-HCl buffer pH 7.4, using 75-125 μg protein, 25 μM [methyl-^3H]AdoMet ([…] in DMSO) in a total volume of 50 μl. DMSO concentration in all assays was 4%.
# Reactions were terminated after 10 min. by adding 500 μl chloroform methanol (1:1) and a subsequent addition of 250 μl H2O, mixing them and subsequently by phase separation. A portion of 125 μl of the chloroform phase was dried down at 40° C. and 200 μl of 1M NaOH/1% SDS solution were added thereto. The [^3H]methanol thus formed was counted by the vapor phase equilibrium method as described previously (Hakiai et al., Cell Mol. Neurobiol., 11, 415-431, (1991); Lenner et al., Cell Mol. Neurbiol., 12, 333 and 3351, (1992); Ben-Baruch et al., Biochem. Biophy. Res. Commun., 195, 282-288, (1993)). Typical background counts (i.e. counts of methylation with no AFC added) were 50-100 cpm while typical methylation counts with AFC as a substrate yielded 500 to 6000 cpm. Assays were performed in triplicate and background counts subtracted. Methylation of endogenous substrates, in intact cells, and [α-^32P] GTP-blot overlay assays and gel electrophoreses were performed as detailed previously (Hakiai et al., supra (1991); Lenner et al., supra (1993)).
# ras methylation = conditions: ras-transformed NTH3T3 cells; cited from earlier work
# [2] = system: ras-transformed NTH3T3 cells; conditions: cited from earlier work
# platelet aggregation = conditions: cited from earlier work
# neutrophils chemotaxis = conditions: cited from earlier work
# [3] = system: Ha-ras-transformed rat1 cells; assay: Growth of ras-transformed rat1 cells (cell counting); type: cell-based, rat; conditions: for EC50: Rattus norvegicus, 168 h, day 7 of drug treatment, estimated from dose response curves, read-out: Inhibition of rab-transformed rat1 cell growth EC50; for effects on cell growth of ras-transformed rat1 cells: drug concentrations up to 200 μM
# From the text: The cell lines employed were rat1, -EJ, which are rat1 cells stably expressing Val- 12 activated human Ha-ras gene (Land H. et al., Nature, 304, 596-602, (1983)); V-raf-3T3, which are 3T3 cells stably expressing the V-raf gene (Xu, N., et al., Proc. Natl. Acad. Sci., 90, 6741-6745); RB-22, which are 3T3 cells stably expressing the rat Erb-B2 gene (Peles, et al., EMBO J., 10, 2077-2086 (1991)) CO6O cells (SV40-CHO), which are CHE cells stably expressing the SV-40 T-antigen gene (Lavi, Proc. Natl. Acad. Sci., 78, 6144-6148 (1981)); human endometrial carcinoma cell line HEC1A, which are cells that express activated K-ras (Enomoto T., Cancer Res., 50, 6139-6145; mouse B16F10 melanoma cells, rat pheochromocytoma PC12 cells, […] cells CHE and COS cells.
# HEC1A, V-raf-3T3 and SV40-CHE cells were grown in Dulbecco's modified Eagle medium (DMEM) containing 10% fetal calf serum (FCS), 4 mM L-glutamine, 10 μg/ml streptomycin and 10 U/ml penicillin. Rat1 and -EJ cells were grown in the same medium except that it was supplemented with 12.5 U/ml nyostatin. RB-22 cells were grown in modified DMEM (1 mM sodium pyruvate, 20 mM sodium bicarbonate)/10% FCS containing 4 mM L-glutamine, […] streptomycin, 10 U/ml penicillin. PC-12 cells were grown in DMEM 15% FCS/5% horse serum and the above noted antibiotics.
# HEC1A cells were plated in 24 well plates at a density of 5×10^3 cells per well and fed with 1 ml of medium. The cells were grown at 37° C. in a humidified atmosphere of 95%/5% air/CO2. All other cell types employed were plated in 24 well plates at a density of 2×10^3 cells per well and fed with the appropriate medium.
# Cultures were treated with farnesyl derivatives or with solvent either 3 hrs following plating or one day after plating as indicated. […] Control cultures received 0.1% DMSO only. Cultures were fed on days 6, 7 and 9 of the experiment with the drugs or with solvent-containing media.
# Cells were counted following 3, 7 and 10 days of beginning of treatments with drugs. For counting, cells were detached from plates with trypsin/EDTA, and collected by a low speed spin in the presence of DMEM/10% FCS. The pelleted cells were resuspended in a small volume of DMEM/10% FCS and counted under the microscope. Viability of cells was estimated by staining with (3-(4,5-dimethylthiosol-2-yl)-2,5-diphenyltetrazolium bromide (MTT) and microscopic examination of the stained and unstained cells, or spectrophotometric estimation (OD490, 590) of the total stain in each well. Non viable cells were estimated by the trypan blue exclusion method.
# Cells were plated at a density 2×10^3/well and received either solvent or drugs one day later. Following 3, 7, or 10 days of the drugs-treatment as described above, cells were collected and the number of cells in each well was estimated by direct counting. […] The effect was apparent after a delay of at least three days. About 40-60% inhibition of cell growth was induced either by FTA or by FTS observed on days 7 and 10 of the treatment.
SMILES,[3H-methyl]ester formed ([1]; 100 μM AFC alone as substrate) [cpm/assay],[3H-methyl]ester formed ([1]; 200 μM of the substance alone as substrate) [cpm/assay],inhibition of ras methylation (ras methylation),inhibition of cell growth [2],inhibition of platelet aggregation (platelet aggregation),inhibition of neutrophils chemotaxis (neutrophils chemotaxis),serves as substrate for PPMTase methylation [1],Ki [1] [µM],EC50 [3] [µM],effects on cell growth of ras-transformed rat1 cells [3]
"CC(=O)N[C@@H](CSC/C=C(\C)CC/C=C(\C)CCC=C(C)C)C(=O)O (stereo in doubt) [AFC, N-acetyl-trans-trans-farnesyl-L-cysteine]",3200 ± 130,3700 ± 150,can inhibit ras methylation,does not inhibit their growth,inhibit,inhibit,,,,
CC(C)=CCC/C(C)=C/CC/C(C)=C/CSc1ccc(N)cc1C(=O)O [5-amino FTS],,,,,,,do not serve as substrates,66.1 to 80.5,> 200,not active
"CC(C)=CCC/C(C)=C/CC/C(C)=C/CNc1ccc(Cl)c(C(=O)O)c1 [NFCB, 2-chloro-5-farnesylaminobenzoic acid]",,,,,,,do not serve as substrates,6.6 to 9.5,20 to 40,effects similar to those observed with FTS and FTA
